Test [1] concerns the target T1, Lactoylglutathione lyase (Homo sapiens, UniProt Q04760). Description: Inhibition of human recombinant His-tagged glyoxalase 1 expressed in Escherichia coli BL21 (DE3) preincubated for 20 mins by Dixon plot analysis.
The target of test [2] is T1, Lactoylglutathione lyase. The test is described as follows: Inhibition of glyoxalase 1.

The record followed here is ChEMBL document CHEMBL1667824 (Bioorg Med Chem, 2011).

T1 sequence (Q04760 whole entry): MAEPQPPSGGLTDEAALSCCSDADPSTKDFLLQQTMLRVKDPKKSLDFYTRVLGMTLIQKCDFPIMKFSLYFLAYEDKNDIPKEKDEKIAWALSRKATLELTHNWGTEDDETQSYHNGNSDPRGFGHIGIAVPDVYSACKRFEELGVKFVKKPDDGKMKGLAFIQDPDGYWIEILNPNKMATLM

As to `CC(C(=O)O)c1cccc(Oc2ccccc2)c1` (configuration not stated) [FENOPROFEN], the Ki (in general, the equilibrium dissociation constant of an inhibitor or competing ligand from its target) at Lactoylglutathione lyase [1] is 383 µM; at Lactoylglutathione lyase [2], 400 µM.
For the molecule `CCOC(=O)/C(=C\C=C(\C(C)=O)C(=O)OCC)C(C)=O`, on Lactoylglutathione lyase [1], the Ki came out at 39 µM.
Same read-out and setting: under `O=C(O)C(=Cc1cccc([N+](=O)[O-])c1)C(=O)O` stands 426 µM; under `COc1cc(/C=C/C(O)=C/C(=O)/C=C/c2ccc[nH]2)ccc1O`, 18 µM.
In the case of `COc1ccc2c(c1)c(CC(=O)OCC(=O)O)c(C)n2C(=O)c1ccc(Cl)cc1` [ACEMETACIN], the Ki at Lactoylglutathione lyase [1] is 49 µM; on Lactoylglutathione lyase [2], 12.9 µM.
Consider `CCOC(=O)/C=C/c1ccc(O)c(OC)c1` [ETHYL FERULATE], for which the Ki on Lactoylglutathione lyase [1] amounted to 385 µM.
The same measure, in the same setting: under `CCOC(=O)/C(=C\c1cccc([N+](=O)[O-])c1)C(C)=O` stands 65 µM; under `COc1ccc(/C=C/C(=O)C(=CO)C(=O)/C=C/c2ccc(OC)cc2)cc1`, 109 µM.
For the molecule `CC(C(=O)O)c1cccc(C(=O)c2ccccc2)c1` (configuration not stated) [KETOPROFEN], the Ki at Lactoylglutathione lyase [1] is 843 µM; on Lactoylglutathione lyase [2] it was 414 µM.
On the same counts, the results for `CC1=C(CC(=O)O)c2cc(F)ccc2/C1=C\c1ccc([S+](C)[O-])cc1` (configuration not stated) are 139 µM and 77.9 µM.
Consider `COc1cc(/C=C/C(=O)C(=Cc2ccc(OC)c(OC)c2)C(=O)/C=C/c2ccc(O)c(OC)c2)ccc1O`, for which the Ki at Lactoylglutathione lyase [1] stood at 4.6 µM.
For `COc1cc(/C=C/C(=O)C(=Cc2cccc(F)c2)C(=O)/C=C/c2ccc(O)c(OC)c2)ccc1O`, on Lactoylglutathione lyase [1], the Ki turned out to be 2.6 µM.
With `NC(=O)/C=C/c1ccc(F)cc1`, on Lactoylglutathione lyase [1], the Ki was 1390 µM.
Same read-out and setting: to `COc1ccc(/C=C/C(=O)/C=C(O)/C=C/c2ccc(CO)o2)cc1` belongs 74 µM.
Turning to `Cc1cc(CC(=O)O)n(C)c1C(=O)c1ccc(Cl)cc1` [ZOMEPIRAC], the Ki at Lactoylglutathione lyase [1] came to 335 µM; at Lactoylglutathione lyase [2] it was 107 µM.
As to `O=C(/C=C/c1ccc(O)cc1)CC(=O)/C=C/c1ccc(O)cc1` [BISDEMETHOXYCURCUMIN], the inhibition constant Ki at Lactoylglutathione lyase [1] amounted to 18 µM.
The same measure, in the same setting: under `COc1cc(C=C(C(=O)/C=C/c2ccc(O)c(OC)c2)C(=O)/C=C/c2ccc(O)c(OC)c2)ccc1O` stands 3.6 µM; under `CC(=O)C(=Cc1cccc([N+](=O)[O-])c1)C(C)=O`, 91 µM; under `COc1ccc(C=C(C(C)=O)C(C)=O)cc1`, 383 µM.
With `CC(=O)C(=Cc1ccc([N+](=O)[O-])o1)C(C)=O`, the Ki on Lactoylglutathione lyase [1] turned out to be 27 µM.
Turning to `COc1ccc2c(c1)c(CC(=O)O)c(C)n2C(=O)c1ccc(Cl)cc1` [INDOMETHACIN], the Ki at Lactoylglutathione lyase [1] was found to be 24 µM; on Lactoylglutathione lyase [2], 18.1 µM.
`O=C(/C=C(O)/C=C/c1ccco1)/C=C/c1ccco1`: the Ki at Lactoylglutathione lyase [1] amounted to 1500 µM.
For `Cc1ccc(C(=O)c2ccc(CC(=O)O)n2C)cc1` [TOLMETIN], the figures for the Ki at Lactoylglutathione lyase [1] and at Lactoylglutathione lyase [2] were 1010 µM and 87.8 µM, respectively.
With `COc1ccc(/C=C/C(=O)/C=C(O)/C=C/c2ccc(O)cc2)cc1OC`, on Lactoylglutathione lyase [1], the Ki amounted to 29 µM.
On the same count and under the same terms, to `COc1cc(/C=C/C(=O)C(=Cc2ccc(F)cc2)C(=O)/C=C/c2ccc(O)c(OC)c2)ccc1O` belongs 3.2 µM; to `COc1ccc(/C=C/C(=O)C(=Cc2ccc(C=O)c(C=O)c2)C(=O)/C=C/c2ccc(OC)c(OC)c2)cc1OC`, 3.6 µM.
In the case of `O=C(/C=C(O)/C=C/c1ccc(F)cc1)/C=C/c1ccc(F)cc1`, the Ki at Lactoylglutathione lyase [1] stood at 4.6 µM.
As for `COc1cc(/C=C/C(O)=C/C(C)=O)ccc1O`, at Lactoylglutathione lyase [1], the Ki was determined as 90 µM.
Consider `CCOC(=O)/C(=C\c1ccc([N+](=O)[O-])cc1)C(C)=O`, for which the Ki on Lactoylglutathione lyase [1] was 159 µM.
Take `COC(=O)/C=C/c1ccc(F)cc1`: the Ki at Lactoylglutathione lyase [1] amounted to 1910 µM.
